Test results from patent publication US20060079453A1, “Hla binding peptides and their uses” (priority 2002, published 2006).
Read-outs that look alike come from different tables or passages of the source. No end group written: not given here.

Legend:
Test in all cases: biochemical
Type in all cases: binding
HLA-DR DRB1*0901 (DR9) = HLA-DR DRB1*0901 (DR9) (Homo sapiens, UniProt P01903+P01911, A100R/A103E/D57H/D86V/F55Y/F60I/F76Y/I96F/K127E/L162R/M171V/P40D/Q125H/Q99R/R33Q/R42F/S133A/S66N/T210M/V115G/W38K/Y107V/Y59G/Y89S); settings: DRB1 *0901
HLA-DR DRB1*0401 (DR4) = HLA-DR DRB1*0401 (DR4) (Homo sapiens, UniProt P01903+P01911, A100K/A169T/F76Y/I96L/K127E/L162R/M171V/N62H/P40V/Q125Y/R42H/S133A/S149N/S66Y/V115G/V209L/W38E); settings: DRB1 *0401
HLA-DR DRB1*0701 (DR7) = HLA-DR DRB1*0701 (DR7) (Homo sapiens, UniProt P01903+P01911, A100R/A102G/A103Q/D57E/D86V/E43K/F76Y/K127E/L162R/M171V/P40G/Q125H/Q99D/R33Q/R42Y/R54Q/S133A/S66F/T210M/V115G/Y107V/Y59L/Y89S)
HLA-DR DRB4*0101 (DR53) = HLA-DR DRB4*0101 (DR53) (Homo sapiens, UniProt P01903+P13762, G164S)
HLA-DR DRB1*0101 (DR1) = HLA-DR DRB1*0101 (DR1) (Homo sapiens, UniProt P01903+P01911, A100R/D57E/F55L/F60I/F76Y/I96L/L162R/M171V/P40L/Q125E/R42F/V115G/Y59C)
HLA-DR DRB1*1501 (DR15) = HLA-DR DRB1*1501 (DR15) (Homo sapiens, UniProt P01903+P01911)
HLA-DR DRB5*0101 (DR51) = HLA-DR DRB5*0101 (DR51) (Homo sapiens, UniProt P01903+Q30154)
HLA-DR DRB3*0101 (DR52) = HLA-DR DRB3*0101 (DR52) (Homo sapiens, UniProt P01903+P79483)
HLA-DR DRB1*1302 (DR13) = HLA-DR DRB1*1302 (DR13) (Homo sapiens, UniProt P01903+P01911, A100E/A169T/K41T/L162R/M171V/P40S/Q125H/Q178H/Q39Y/Q99D/R42S/S66N/T262R/V115G/W38E/Y61H)
Chain of HLA-DR DRB1*1302 (DR13) (P01903 26-254 limits assumed, other chains not shown): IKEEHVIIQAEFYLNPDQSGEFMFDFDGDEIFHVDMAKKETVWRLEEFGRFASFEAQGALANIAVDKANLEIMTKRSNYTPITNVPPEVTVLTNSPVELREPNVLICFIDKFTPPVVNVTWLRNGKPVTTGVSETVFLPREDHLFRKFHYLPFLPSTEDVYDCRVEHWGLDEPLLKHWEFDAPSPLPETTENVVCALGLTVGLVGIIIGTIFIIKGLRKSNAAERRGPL

HLA-DR DRB1*0301 (DR3) = HLA-DR DRB1*0301 (DR3) (Homo sapiens, UniProt P01903+P01911, A100K/A102G/A103R/A169T/F55Y/I96L/K41T/L162R/M171V/P40S/Q125H/Q178H/Q39Y/R42S/S66N/T106N/T262R/W38E/Y61H)
Chain of HLA-DR DRB1*0301 (DR3) (P01903 26-254 limits assumed, other chains not shown): as above

HLA-DR DRB1*1101 (DR11) = HLA-DR DRB1*1101 (DR11) (Homo sapiens, UniProt P01903+P01911, A100R/A169T/A87E/I96F/K41T/L162R/M171V/P40S/Q125H/Q178H/Q39Y/Q99D/R42S/S66Y/T262R/V115G/W38E)
Chain of HLA-DR DRB1*1101 (DR11) (P01903 26-254 limits assumed, other chains not shown): as above

Row | Molecule | IC50 (HLA-DR DRB1*0901 (DR9)) [µM] | IC50 (HLA-DR DRB1*0401 (DR4)) [µM] | IC50 (HLA-DR DRB1*0701 (DR7); DRB1 *0701) [µM] | IC50 (HLA-DR DRB4*0101 (DR53); DRB4 *0101) [µM] | IC50 (HLA-DR DRB1*0101 (DR1); DRB1 *0101) [µM] | IC50 (HLA-DR DRB1*1501 (DR15); DRBI *1501) [µM] | IC50 (HLA-DR DRB5*0101 (DR51); DRB5 *0101) [µM] | IC50 (HLA-DR DRB3*0101 (DR52)) [µM] | IC50 (HLA-DR DRB1*1302 (DR13); DRBI *1302) [µM] | IC50 (HLA-DR DRB1*0301 (DR3)) [µM] | IC50 (HLA-DR DRB1*1101 (DR11); DRB1 *1101) [µM] | IC50 (HLA-DR DRB1*0701 (DR7)) [µM] | IC50 (HLA-DR DRB4*0101 (DR53)) [µM] | IC50 (HLA-DR DRB1*1101 (DR11)) [µM] | IC50 (HLA-DR DRB1*0101 (DR1)) [µM] | IC50 (HLA-DR DRB1*1501 (DR15)) [µM] | IC50 (HLA-DR DRB5*0101 (DR51)) [µM] | IC50 (HLA-DR DRB1*1302 (DR13)) [µM]
1 | CC(C)C[C@H](NC(=O)CNC(=O)[C@H](CC(N)=O)NC(=O)[C@H](Cc1ccc(O)cc1)NC(=O)[C@@H](NC(=O)[C@H](CC(=O)O)NC(=O)[C@H](CC(C)C)NC(=O)[C@H](C)N)C(C)C)C(=O)N[C@@H](CC(C)C)C(=O)N1CCC[C@H]1C(=O)N1CCC[C@H]1C(=O)N[C@@H](Cc1ccc(O)cc1)C(=O)N[C@@H](C)C(=O)N[C@@H](CO)C(=O)N[C@@H](CS)C(=O)O | 86.6 | 0.485 | > 83.3 | > 10.1 | 0.018 | 1.09 | 115 | > 15 | > 35 | – | – | – | – | – | – | – | – | –
2 | CC[C@H](C)[C@H](NC(=O)[C@H](Cc1ccccc1)NC(=O)[C@H](C)NC(=O)[C@H](CCCNC(=N)N)NC(=O)[C@H](CCC(=O)O)NC(=O)[C@H](CC(C)C)NC(=O)[C@H](Cc1ccccc1)NC(=O)[C@H](CCSC)NC(=O)[C@H](CC(C)C)NC(=O)[C@H](CCC(N)=O)NC(=O)[C@@H](N)CC(=O)O)C(=O)N[C@@H](CC(=O)O)C(=O)N1CCC[C@H]1C(=O)N[C@@H](CC(C)C)C(=O)NCC(=O)O | – | – | – | 0.0066 | – | – | – | 17.1 | – | > 19.7 | – | – | – | – | – | – | – | –
3 | CC[C@H](C)[C@H](NC(=O)[C@H](CC(N)=O)NC(=O)[C@H](CCC(=O)O)NC(=O)[C@H](C)NC(=O)[C@H](CCCCN)NC(=O)[C@H](CC(C)C)NC(=O)[C@H](CCC(=O)O)NC(=O)[C@H](CC(=O)O)NC(=O)[C@@H](N)CC(C)C)C(=O)N[C@@H](CCCCN)C(=O)N[C@@H](CCCCN)C(=O)N[C@@H](Cc1ccccc1)C(=O)N[C@@H](CC(C)C)C(=O)N[C@@H](Cc1ccc(O)cc1)C(=O)N[C@@H](CC(N)=O)C(=O)O | 12.8 | 4.84 | 7.47 | 0.788 | 1.14 | – | 0.15 | 0.548 | – | – | 0.324 | – | – | – | – | – | – | –
4 | CC(C)C[C@H](NC(=O)CNC(=O)[C@H](CC(N)=O)NC(=O)[C@H](Cc1ccc(O)cc1)NC(=O)[C@@H](NC(=O)[C@H](CC(=O)O)NC(=O)[C@@H](N)CC(C)C)C(C)C)C(=O)N[C@@H](CC(C)C)C(=O)N1CCC[C@H]1C(=O)N1CCC[C@H]1C(=O)N[C@@H](Cc1ccc(O)cc1)C(=O)N[C@@H](C)C(=O)N[C@@H](CO)C(=O)N[C@@H](CS)C(=O)N[C@@H](Cc1c[nH]cn1)C(=O)O | 31.3 | 0.348 | > 83.3 | > 10.9 | 0.015 | 3.03 | 25.8 | > 15 | > 35 | – | – | – | – | – | – | – | – | –
5 | C[C@@H](O)[C@H](NC(=O)[C@H](CCCCN)NC(=O)[C@H](CCC(=O)O)NC(=O)[C@H](CCC(=O)O)NC(=O)CNC(=O)[C@H](Cc1ccccc1)NC(=O)[C@H](CCCNC(=N)N)NC(=O)[C@H](Cc1ccccc1)NC(=O)[C@H](CO)NC(=O)[C@H](CCC(=O)O)NC(=O)[C@H](CCC(=O)O)NC(=O)[C@@H]1CCCN1C(=O)[C@@H]1CCCN1)C(=O)N[C@H](C(=O)N1CCC[C@H]1C(=O)N[C@@H](CO)C(=O)O)[C@@H](C)O | – | – | > 12.5 | – | > 2.5 | – | > 2.86 | > 14.3 | – | > 900 | > 10 | – | – | – | – | – | – | –
6 | CC[C@H](C)[C@H](NC(=O)[C@H](Cc1c[nH]cn1)NC(=O)[C@H](CCSC)NC(=O)[C@H](CCCCN)NC(=O)[C@@H](NC(=O)[C@H](CCCCN)NC(=O)[C@H](CCC(N)=O)NC(=O)[C@@H](NC(=O)[C@H](CO)NC(=O)[C@H](Cc1ccccc1)NC(=O)[C@H](CC(N)=O)NC(=O)CNC(=O)[C@@H](N)[C@@H](C)O)[C@@H](C)O)C(C)C)C(=O)N[C@@H](Cc1c[nH]cn1)C(=O)N[C@@H](CO)C(=O)O | 1.45 | – | 9.41 | 0.508 | 11.2 | – | 1.93 | > 11.8 | 6.19 | – | 11.9 | – | – | – | – | – | – | –
7 | CSCC[C@H](NC(=O)[C@H](CC(=O)O)NC(=O)[C@H](Cc1ccc(O)cc1)NC(=O)[C@H](CC(C)C)NC(=O)[C@@H]1CCCN1C(=O)[C@H](Cc1c[nH]cn1)NC(=O)[C@@H]1CCCN1C(=O)[C@H](Cc1ccccc1)NC(=O)[C@H](CO)NC(=O)[C@H](Cc1c[nH]cn1)NC(=O)[C@H](CO)NC(=O)[C@@H](NC(=O)[C@H](CCC(N)=O)NC(=O)[C@H](Cc1ccccc1)NC(=O)[C@@H](N)C(C)C)C(C)C)C(=O)O | 0.017 | 0.025 | 0.051 | > 12.5 | 0.016 | 2.4 | – | 23.4 | 0.083 | > 75 | – | – | – | – | – | – | – | –
8 | CSCC[C@H](NC(=O)[C@@H](N)Cc1c[nH]c2ccccc12)C(=O)N[C@@H](Cc1ccc(O)cc1)C(=O)N[C@@H](Cc1ccc(O)cc1)C(=O)N[C@@H](Cc1c[nH]cn1)C(=O)NCC(=O)N[C@@H](CCC(N)=O)C(=O)N[C@@H](CCCNC(=N)N)C(=O)N[C@@H](Cc1c[nH]cn1)C(=O)N[C@@H](CO)C(=O)N[C@@H](CC(=O)O)C(=O)N[C@@H](CCC(=O)O)C(=O)N[C@@H](Cc1c[nH]cn1)C(=O)N[C@@H](Cc1c[nH]cn1)C(=O)N[C@@H](Cc1c[nH]cn1)C(=O)O | – | – | > 250 | – | ≥ 50 | – | > 5 | > 7.69 | – | > 900 | > 10 | – | – | – | – | – | – | –
9 | CSCC[C@H](NC(=O)[C@@H]1CCCN1C(=O)[C@H](CC(=O)O)NC(=O)[C@@H](N)Cc1ccc(O)cc1)C(=O)N[C@@H](Cc1ccccc1)C(=O)N[C@@H](CCCCN)C(=O)N[C@@H](Cc1ccc(O)cc1)C(=O)N[C@@H](Cc1c[nH]cn1)C(=O)N[C@@H](CC(C)C)C(=O)N[C@H](C(=O)N[C@H](C(=O)N[C@@H](C)C(=O)N[C@@H](CCC(N)=O)C(=O)N[C@H](C(=O)N[C@@H](CCCNC(=N)N)C(=O)O)C(C)C)C(C)C)[C@@H](C)O | – | 0.019 | 0.158 | 0.553 | 0.009 | 1.35 | 0.062 | 8.14 | 1.01 | > 75 | 0.252 | – | – | – | – | – | – | –
10 | AATYNFAVLKLMGRGTKF | – | – | – | 1.22 | – | – | 0.018 | 70 | – | > 52.9 | 0.017 | – | – | – | – | – | – | –
11 | AFGSMAKKGEEQNVRSAGEL | – | > 0.667 | > 12.5 | – | – | – | – | > 33.3 | – | > 30 | 1.82 | – | – | – | – | – | – | –
12 | AKSTWYGKPTGAGPKDNGGA | – | – | > 12.5 | 10 | – | – | – | > 20 | – | > 30 | – | – | – | – | – | – | – | –
13 | DIAAKYKELGY | – | > 0.471 | – | – | – | – | ≥ 200 | > 25 | – | > 900 | > 10 | – | – | – | – | – | – | –
14 | GAPLGGALRALAHGV | – | 15 | – | – | – | – | – | > 51.1 | – | > 486 | – | 1.42 | 4.89 | 0.083 | 0.068 | 2.07 | 5.4 | 0.34
15 | GMLPVCPLIPGSSTTSTGP | – | 0.4 | – | – | – | – | – | > 25 | – | > 900 | 2.5 | – | – | – | – | – | – | –
16 | QKGRGYRGQHQAHSLERVCH | – | 0.088 | – | 18 | – | > 9.1 | 9.76 | > 500 | – | > 47.4 | 30.2 | – | – | – | – | – | – | –
17 | TAEYGDKWLDAKSTWYGKPT | – | > 0.667 | 3.13 | 10 | – | – | – | > 20 | – | > 30 | – | – | – | – | – | – | – | –
